Reference: PubChem BioAssay AID268 (DTP/NCI, 2004)
Where “and” joins values, the source holds several entries; their conditions need not be identical. Equal values may be shown once.

Tested on: CD2F1 mice, P1798 lymphosarcoma sc, tumor weight T/C
Test: NCI In Vivo Anticancer Drug Screen. Data for tumor model P1798 Lymphosarcoma (subcutaneous) in CD2F1 (CDF1) mice
Conditions: higher = larger tumour
Description: The antitumor activity of compounds was measured in mice bearing transplantable tumors. Survival or tumor size were measured and the results are expressed as the measurement made in the treated group (T) divided by the measurement made in the vehicle treated control group (C). The tumor model used in this assay is P1798 Lymphosarcoma (subcutaneous) in CD2F1 (CDF1) mice

[1] = endpoint: mean tumor weight, dose: 1.25 mg/kg/injection, schedule: Q01DX010 (ip), vehicle: saline
[2] = endpoint: mean tumor weight, dose: 12.5 mg/kg/injection, schedule: Q01DX010 (ip), vehicle: saline
[3] = endpoint: mean tumor weight, dose: 25.0 mg/kg/injection, schedule: Q01DX010 (ip), vehicle: saline
[4] = endpoint: mean tumor weight, dose: 50.0 mg/kg/injection, schedule: Q01DX010 (ip), vehicle: saline
[5] = endpoint: mean tumor weight, dose: 100.0 mg/kg/injection, schedule: Q01DX010 (ip), vehicle: saline
[6] = endpoint: mean tumor weight, dose: 20.0 mg/kg/injection, schedule: Q01DX010 (ip), vehicle: saline
[7] = endpoint: mean tumor weight, dose: 40.0 mg/kg/injection, schedule: Q01DX010 (ip), vehicle: saline
[8] = endpoint: mean tumor weight, dose: 12.5 mg/kg/injection, schedule: Q01DX005 (sc), vehicle: steriod suspending solution
[9] = endpoint: mean tumor weight, dose: 12.5 mg/kg/injection, schedule: Q01DX010 (sc), vehicle: steriod suspending solution
[10] = endpoint: mean tumor weight, dose: 25.0 mg/kg/injection, schedule: Q01DX005 (sc), vehicle: steriod suspending solution
[11] = endpoint: mean tumor weight, dose: 25.0 mg/kg/injection, schedule: Q02DX010 (sc), vehicle: steriod suspending solution
[12] = endpoint: mean tumor weight, dose: 50.0 mg/kg/injection, schedule: Q01DX005 (sc), vehicle: steriod suspending solution
[13] = endpoint: mean tumor weight, dose: 50.0 mg/kg/injection, schedule: Q02DX010 (sc), vehicle: steriod suspending solution
[14] = endpoint: mean tumor weight, dose: 100.0 mg/kg/injection, schedule: Q01DX005 (sc), vehicle: steriod suspending solution
[15] = endpoint: mean tumor weight, dose: 100.0 mg/kg/injection, schedule: Q02DX010 (sc), vehicle: steriod suspending solution
[16] = endpoint: mean tumor weight, dose: 200.0 mg/kg/injection, schedule: Q01DX010 (ip), vehicle: saline
[17] = endpoint: mean tumor weight, dose: 400.0 mg/kg/injection, schedule: Q01DX010 (ip), vehicle: saline
[18] = endpoint: mean tumor weight, dose: 16.0 mg/kg/injection, schedule: Q01DX010 (ip), vehicle: saline
[19] = endpoint: mean tumor weight, dose: 64.0 mg/kg/injection, schedule: Q01DX010 (ip), vehicle: saline
[20] = endpoint: mean tumor weight, dose: 5.0 mg/kg/injection, schedule: Q01DX010 (ip), vehicle: saline
[21] = endpoint: mean tumor weight, dose: 10.0 mg/kg/injection, schedule: Q01DX010 (ip), vehicle: saline

Compound: C[C@]12CCC(=O)C=C1CC[C@H]1[C@@H]3CC[C@@]4(OCC4=O)[C@@]3(C)C[C@H](O)[C@@]12F
- T/C (endpoint: mean tumor weight, dose: 10.0 mg/kg/injection, schedule: Q01DX010 (sc), vehicle: steriod suspending solution): 59 % of control
- T/C (endpoint: mean tumor weight, dose: 20.0 mg/kg/injection, schedule: Q01DX010 (sc), vehicle: steriod suspending solution): 43 % of control
- T/C (endpoint: mean tumor weight, dose: 40.0 mg/kg/injection, schedule: Q01DX010 (sc), vehicle: steriod suspending solution): 48 % of control
- T/C (endpoint: mean tumor weight, dose: 80.0 mg/kg/injection, schedule: Q01DX010 (sc), vehicle: steriod suspending solution): 16 % of control
- T/C (endpoint: mean tumor weight, dose: 160.0 mg/kg/injection, schedule: Q01DX010 (sc), vehicle: steriod suspending solution): 7 % of control
- T/C (endpoint: mean tumor weight, dose: 320.0 mg/kg/injection, schedule: Q01DX010 (sc), vehicle: steriod suspending solution): 1 % of control

Compound: O=C(NCCCC(NC(=O)OCc1ccccc1)C(=O)NCCCNCCCCNCCCNC(=O)C(CCCNC(=O)OCc1ccccc1)NC(=O)OCc1ccccc1)OCc1ccccc1 (stereo unspecified)
- T/C (endpoint: mean tumor weight, dose: 0.63 mg/kg/injection, schedule: Q01DX010 (ip), vehicle: saline): 156 % of control
- T/C [1]: 91 % of control
- T/C (endpoint: mean tumor weight, dose: 2.5 mg/kg/injection, schedule: Q01DX010 (ip), vehicle: saline): 111 % of control

Compound: NCCCCC(N)C(=O)NCCCCCCNC(=O)CCCCC(=O)NCCCCCCNC(=O)C(N)CCCCN (stereo unspecified)
- T/C [2]: 101 % of control
- T/C [3]: 90 % of control
- T/C [4]: 94 % of control
- T/C [5]: 110 % of control

Compound: CC1(O)CCC2C3CCC4=CC(=O)CCC4C3CCC21C (stereo unspecified)
- T/C (endpoint: mean tumor weight, dose: 125.0 mg/kg/injection, schedule: Q01DX010 (sc), vehicle: steriod suspending solution): 83 % of control
- T/C (endpoint: mean tumor weight, dose: 250.0 mg/kg/injection, schedule: Q01DX010 (sc), vehicle: steriod suspending solution): 81 % of control
- T/C (endpoint: mean tumor weight, dose: 500.0 mg/kg/injection, schedule: Q01DX010 (sc), vehicle: steriod suspending solution): 80 % of control
- T/C (endpoint: mean tumor weight, dose: 1000.0 mg/kg/injection, schedule: Q01DX010 (sc), vehicle: steriod suspending solution): 67 % of control

Compound: O=C1NC2C(NC(=O)N2Cl)N1Cl (stereo unspecified)
- T/C [6]: 80 % of control
- T/C [7]: 90 % of control
- T/C (endpoint: mean tumor weight, dose: 80.0 mg/kg/injection, schedule: Q01DX010 (ip), vehicle: saline): 76 % of control

Compound: COC1C(OC(=O)/C=C/C=C/C=C/C=C/C(=O)O)CCC2(CO2)C1C1(C)OC1CC=C(C)C (stereo unspecified)
- T/C [3]: 56 % of control
- T/C [4]: 46 % of control
- T/C [5]: 28 % of control

Compound: CC(=O)[C@@]1(O)CC[C@H]2[C@@H]3C[C@H](C)C4=CC(=O)C=C[C@]4(C)[C@@]3(F)[C@@H](O)C[C@@]21C
- T/C [8]: 3 % of control
- T/C [9]: 18 % of control and 41 % of control
- T/C [10]: 3 % of control
- T/C [11]: 98 % of control
- T/C [12]: 2 % of control
- T/C [13]: 93 % of control
- T/C [14]: 1 % of control
- T/C [15]: 98 % of control

Compound: C[C@@H]1C[C@H]2[C@@H]3CCC4=CC(=O)C=C[C@]4(C)[C@@]3(F)[C@@H](O)C[C@]2(C)[C@@]1(O)C(=O)CO
- T/C (endpoint: mean tumor weight (est.), dose: 3.13 mg/kg/injection, schedule: Q01DX016 (sc), vehicle: saline): 55 % of control
- T/C (endpoint: mean tumor weight (est.), dose: 6.25 mg/kg/injection, schedule: Q01DX016 (sc), vehicle: saline): 7 % of control
- T/C (endpoint: mean tumor weight, dose: 3.13 mg/kg/injection, schedule: Q01DX005 (sc), vehicle: steriod suspending solution): 33 % of control
- T/C (endpoint: mean tumor weight, dose: 3.13 mg/kg/injection, schedule: Q01DX010 (sc), vehicle: steriod suspending solution): 5 % of control
- T/C (endpoint: mean tumor weight, dose: 6.25 mg/kg/injection, schedule: Q01DX005 (sc), vehicle: steriod suspending solution): 8 % of control
- T/C (endpoint: mean tumor weight, dose: 6.25 mg/kg/injection, schedule: Q02DX010 (sc), vehicle: steriod suspending solution): 116 % of control
- T/C [8]: 4 % of control
- T/C (endpoint: mean tumor weight, dose: 12.5 mg/kg/injection, schedule: Q02DX010 (sc), vehicle: steriod suspending solution): 98 % of control
- T/C [10]: 1 % of control
- T/C [11]: 56 % of control

Compound: CC(=O)Nc1ccc(/C=N/Nc2ccc([N+](=O)[O-])cn2)cc1
- T/C (endpoint: mean tumor weight, dose: 62.5 mg/kg/injection, schedule: Q01DX010 (ip), vehicle: saline): 66 % of control
- T/C (endpoint: mean tumor weight, dose: 125.0 mg/kg/injection, schedule: Q01DX010 (ip), vehicle: saline): 75 % of control
- T/C (endpoint: mean tumor weight, dose: 250.0 mg/kg/injection, schedule: Q01DX010 (ip), vehicle: saline): 16 % of control

Compound: O=c1cnn(C2OC(CO)C(O)C2O)c(=O)[nH]1 (stereo unspecified)
- T/C [4]: 80 % of control
- T/C [5]: 73 % of control
- T/C [16]: 49 % of control
- T/C [17]: 17 % of control

Compound: Nc1nc(SCc2ccccc2)c2[nH]cnc2n1
- T/C [18]: 86 % of control
- T/C [19]: 90 % of control

Compound: CC(=O)NCCSC(=O)C(=O)SCCNC(C)=O
- T/C [3]: 111 % of control
- T/C [4]: 104 % of control
- T/C [5]: 110 % of control

Compound: NC(N)=NCCCC(N)C(=O)NCCCCCCNCCCCCCNC(=O)C(N)CCCN=C(N)N (stereo unspecified)
- T/C [20]: 102 % of control
- T/C [21]: 105 % of control
- T/C [6]: 84 % of control
- T/C [7]: 116 % of control

Compound: O=C(NCCCCC(NC(=O)c1ccccc1)C(=O)NCCCCCCNCCCCCCNC(=O)C(CCCCNC(=O)c1ccccc1)NC(=O)c1ccccc1)c1ccccc1 (stereo unspecified)
- T/C [4]: 98 % of control
- T/C [5]: 85 % of control
- T/C [16]: 116 % of control
- T/C [17]: 80 % of control

Compound: Nc1ncnc2[nH]ncc12
- T/C (endpoint: mean tumor weight, dose: 1.5 mg/kg/injection, schedule: Q01DX010 (ip), vehicle: saline): 84 % of control and 88 % of control
- T/C (endpoint: mean tumor weight, dose: 3.0 mg/kg/injection, schedule: Q01DX010 (ip), vehicle: saline): 73 % of control and 88 % of control
- T/C (endpoint: mean tumor weight, dose: 12.0 mg/kg/injection, schedule: Q01DX010 (ip), vehicle: saline): 43 % of control

Compound: NC(=O)NO
- T/C (endpoint: mean tumor weight, dose: 60.0 mg/kg/injection, schedule: Q01DX010 (ip), vehicle: saline): 60 % of control
- T/C (endpoint: mean tumor weight, dose: 90.0 mg/kg/injection, schedule: Q01DX010 (ip), vehicle: saline): 54 % of control
- T/C (endpoint: mean tumor weight, dose: 135.0 mg/kg/injection, schedule: Q01DX010 (ip), vehicle: saline): 39 % of control
- T/C [16]: 12 % of control

Compound: COc1cc2c3c(c4ccc(OC)c(OC)c4c2cc1OC)CN1CCC[C@@H]1C3
- T/C [1]: 100 % of control and 78 % of control
- T/C [20]: 108 % of control and 87 % of control
- T/C [21]: 93 % of control and 104 % of control

Compound: CCN(CC)CCCC(C)Nc1c2ccc(Cl)cc2nc2ccc(OC)cc12 (stereo unspecified)
- T/C [2]: 103 % of control
- T/C [3]: 103 % of control and 88 % of control
- T/C [4]: 81 % of control and 85 % of control
- T/C [5]: 61 % of control and 64 % of control

Compound: CO[C@@H]1[C@@H](OC2OC(C)C(OC3CC(C)(O)C(OC(=O)CC(C)C)C(C)O3)C(N(C)C)C2O)[C@@H](CC=O)C[C@@H](C)C(=O)/C=C/C2O[C@H]2C[C@@H](C)OC(=O)C[C@H]1OC(C)=O (stereo partly specified)
- T/C [4]: 89 % of control
- T/C (endpoint: mean tumor weight, dose: 75.0 mg/kg/injection, schedule: Q01DX010 (ip), vehicle: saline): 105 % of control
- T/C [5]: 90 % of control
- T/C (endpoint: mean tumor weight, dose: 150.0 mg/kg/injection, schedule: Q01DX010 (ip), vehicle: saline): 90 % of control
- T/C [16]: 95 % of control
- T/C (endpoint: mean tumor weight, dose: 300.0 mg/kg/injection, schedule: Q01DX010 (ip), vehicle: saline): 21 % of control
- T/C [17]: 71 % of control

Compound: c1ccc(CNc2ncnc3[nH]ncc23)cc1
- T/C [18]: 98 % of control
- T/C (endpoint: mean tumor weight, dose: 32.0 mg/kg/injection, schedule: Q01DX010 (ip), vehicle: saline): 83 % of control
- T/C [19]: 70 % of control

Compound: C[C@]12C=CC(=O)C=C1CC[C@@H]1[C@@H]2[C@@H](O)C[C@@]2(C)[C@H]1CC[C@]2(O)C(=O)CO
- T/C [8]: 41 % of control
- T/C [9]: 42 % of control and 46 % of control
- T/C [10]: 48 % of control
- T/C [11]: 100 % of control
- T/C (endpoint: mean tumor weight, dose: 25.0 mg/kg/injection, schedule: Q03DX004 (sc), vehicle: steriod suspending solution): 87 % of control
- T/C [12]: 22 % of control
- T/C [13]: 100 % of control
- T/C (endpoint: mean tumor weight, dose: 50.0 mg/kg/injection, schedule: Q03DX004 (sc), vehicle: steriod suspending solution): 92 % of control
- T/C [14]: 20 % of control
- T/C [15]: 96 % of control
- T/C (endpoint: mean tumor weight, dose: 100.0 mg/kg/injection, schedule: Q03DX004 (sc), vehicle: steriod suspending solution): 100 % of control
